According to a melting point compilation (Tetko et al.; mined from patent text by program, amines drawn as free bases though some values may be those of a salt):

Structure (SMILES) | melting point [°C]
COc1ccccc1Cc1ccc(C(=O)C2=C(O)C(=O)N(C(C)C)C2)o1 | 123 to 124
C[C@H](N[C@H]1CC[C@@H](c2ccccc2)CC1)[C@@H](O)c1ccc(O)cc1 | 199 to 212
CCCCn1nc(SCc2ccc(OC)cc2)c(C(=O)O)c1Cc1cc2c(cc1Cl)OCO2 | 181
CC(=O)Nc1cc(O)c(C(=O)O)cc1NC(=N)N | 334 to 357
CC(C)(C)c1ccc(N2CCOCC2)c(NP(=O)(O)O)c1 | 79 to 83
Cc1cccc(-c2n[nH]cc2-c2ccnc(-c3ccc(C#N)cc3)c2)n1 | 198
CC(C)c1cc(NC(=O)C(CS)Cc2ccccc2)cc(C(=O)O)c1 (stereo unspecified) | 205 to 209
CN(Cc1cccc2c1CN(C1CCC(=O)NC1=O)C2=O)C(=O)c1ccc(Cl)c(Cl)c1 (stereo unspecified) | 228 to 230
O=C1c2ccccc2CS(=O)(=O)N1CCC(c1ccccc1)N1CCOCC1 (stereo unspecified) | 130
CC(C)N(CC1CCCCN1CCNC(=O)N1c2ccccc2C(=O)Nc2cccnc21)C(C)C (stereo unspecified) | 181 to 182
O=C(c1cccnc1)N1CCC(c2ccccc2[N+](=O)[O-])=N1 | 123 to 125
CCCc1ccnc(C(=O)c2[nH]c3ccc(Cl)cc3c2CC(=O)O)c1 | 208 to 209
Cc1cc(-c2ncn3c(C(F)(F)F)cc(-c4ccc(C(F)(F)F)c(OCC(F)(F)F)c4)nc23)ccn1 | 189
CCCOc1cc(C)ccc1C1=NC(=O)C2=NC=NC2=N1 | 323 to 325
Cc1ccc(S(=O)(=O)OC2CC3(C)C=CC(C)(C2)O3)cc1 (stereo unspecified) | 75 to 77
COc1ccc(-c2cnc(N)c(Cc3ccccc3)n2)cc1 | 150 to 153
Cc1cc(Br)cc(C(=O)Nc2ccc(F)cn2)n1 | 160
O=C(O)C1=Cc2cc(-c3ccc(OC(F)(F)F)cc3)ccc2OCC1 | 252 to 254
CSc1nc(Cc2ccccc2N)n[nH]1 | 99 to 102
CC1CCN=C2C(=O)c3cc(Br)ccc3N21 (stereo unspecified) | 127 to 129
CC1(CN2CCN(C(=O)NCC=Cc3ccc(C(F)(F)F)cc3)CC2)Cn2cc([N+](=O)[O-])nc2O1 (stereo unspecified) | 105 to 107
CCc1nnc2c(NC3CCCC3)nc3ccccc3n12 | 166 to 168
Cc1c(C(O)C(C)(C)C)cc(I)[nH]c1=O (stereo unspecified) | 186 to 187
CN1C(=O)C(=C(Nc2ccc(-c3cn(C)cn3)cc2)c2ccc(CN)cc2)c2ccccc21 | > 300
Cc1cc2c(c(C)c1S(=O)(=O)C[N+](=O)[O-])CCCO2 | 136 to 138
Cc1c(C)c(N2C(=O)c3ccccc3C2=O)c(C)c2c1OC(C)(C)C2 | 166 to 168

Structure (SMILES) | melting point [°C]
O=[N+]([O-])c1cccnc1N1CCNCC1 | 79 to 82
CCCCC(=O)CC(=O)c1ccc(C2CCC(CC)CC2)cc1 (stereo unspecified) | 90
Cc1ccc(NC(=O)c2ccc(C[N+]3([O-])CC[N+](C)([O-])CC3)cc2)cc1Nc1nccc(-c2cccnc2)n1 (stereo unspecified) | 242 to 244
CCCCCCN(Cc1ccccc1)c1c(N[C@@H](Cc2ccccc2)C(=O)O)c(=O)c1=O | 61 to 65
Cn1c2cc(C=O)ccc2c2nc3ccccc3nc21 | 237 to 238
CCOC(=O)c1ccc2c(c1)OC(c1cc(Cl)cc(Cl)c1)(c1cc(Cl)cc(Cl)c1)O2 | 89
CCC#CCOc1cc2c(cc1/C=C/c1ccc(C(=O)O)cc1)C(C)(C)CCC2(C)C | 144 to 145
Cc1cc2cc(O)ccc2[nH]1 | 124 to 126
O=[N+]([O-])c1ccc(F)c(CO)c1 | 50 to 53
c1ccc(Cc2ccccc2Cc2ccccc2)cc1 | 61 to 67
Cc1c(C)c(N2C(=O)c3ccccc3C2=O)c(C)c2c1OC(C)(C)C2c1ccc(C(C)C)cc1 (stereo unspecified) | 180 to 181
O=c1nc(-c2ccnc(Cl)c2)sc2ccccc12 | 178
CC(C)(C)c1cc(C=O)c2c(c1O)CCCC2 | 193 to 194
CCCOc1cc(CCCOc2c(CC(=O)O)cccc2OC)n(Cc2ccc3ccccc3n2)n1 | 97 to 98
COc1cc(N2CCN(C[C@H](C)O)CC2)c(F)cc1Nc1ncc2ccc(-c3ccccc3N(C)S(C)(=O)=O)n2n1 | 116 to 120
NC(=O)c1c(N2CCN(Cc3ccccc3)CC2)nn2c(-c3cccc(C(F)(F)F)c3)ccnc12 | 252 to 254
Cc1nn(Cc2ccccc2)c(=O)[nH]c1=O | 141 to 142
CN(C)CCCN(c1ccccc1)c1ncccc1NC(=O)c1ccccc1Cl | 90 to 92
Nc1ncc2c(n1)CCC(=O)C2 | 214 to 217
CCOC(=O)[C@@H](CO)NCc1c(N)cccc1Cl | 73 to 75
Cc1ccc(Oc2ccccc2-c2noc(=O)[nH]2)c(O)c1 | 213 to 214
Cc1ccc(NC(=O)c2cccc([N+](=O)[O-])c2)cc1 | 160 to 162
O=C1c2ccc(Nc3ccc(Cl)cc3)cc2C(=O)N1Cc1cccnc1 | 207 to 210
CON=C(C(=O)OC)c1ccccc1COc1ccc(C(C)=NOCc2ccccc2)cc1 | 104 to 106
CCOC(=O)c1nc(-c2ccc(F)cc2)c(-c2ccc(S(C)(=O)=O)cc2)s1 | 173 to 174
O=C1CCc2ccc(OCCCCCl)cc2N1 | 104 to 106

Structure (SMILES) | melting point [°C]
COc1cc(OC)nc(NC(=O)NS(=O)(=O)Nc2ccc(F)cc2C(=O)C2CC2)n1 | 76 to 78
N#Cc1ccc(COc2ccc(-c3ccc(C4Cc5ccccc5C(O)C4)cc3)cc2)cc1 (stereo unspecified) | 172
Cc1cccc(O[C@@H]2CCNC[C@H]2O)c1C (relative stereo) | 127 to 129
CC(O)(Cc1cnc(Cl)s1)c1ccc(Cl)cc1Cl (stereo unspecified) | 164
CC(C)(c1ccccc1)C(n1ccnc1)S(=O)c1ccc(Cl)cc1 (stereo unspecified) | 125 to 127
Nn1nc(-c2ccc(Cl)cc2)cc1OCCN1CCCCC1 | 119
C(=Cc1ccc(N(c2ccccc2)c2ccccc2)cc1)c1ccc(N(c2ccccc2)c2ccccc2)cc1 | 247 to 259
Cc1cc2c(cc1N)OCO2 | 88 to 89
CC(CCCCCOCCc1ccccc1)NCC(O)c1ccc(O)c2[nH]c(=O)ccc12 (stereo unspecified) | 134 to 138
CN1CCCC(c2cccc3[nH]ccc23)C1 (stereo unspecified) | 151
CC(=O)N1CCN(Cc2sccc2S(=O)(=O)N(C)c2cccc3cc(-c4nccs4)[nH]c23)CC1 | 242
CS(=O)(=O)c1ccc(-c2nn(Cc3ccc(Cl)cc3Cl)c(=O)cc2-c2ccc(Cl)cc2)cc1 | 233 to 234
COC(=O)C1(CF)C=NN(C)N1 (stereo unspecified) | 64 to 66
CN(C)[C@H]1CCC[C@H]1C(=O)O (relative stereo) | 82 to 84
Cc1c(C(=O)Nc2ccc(N3CCC(N4CCOCC4)CC3)c(Cl)c2)cnn1-c1ccc(Cl)cc1 | 238 to 240
CCOC(=O)C1C2OC3COC(C)(C)OC3C(OC)C21 (stereo unspecified) | 65 to 68
CC(=O)OCCN1CSC(=Cc2cc(C(C)(C)C)c(O)c(C(C)(C)C)c2)C1=O | 152 to 155
Cc1ccc(-c2ccccc2NC(=O)NN)cc1 | 148 to 151
CNC(=O)c1ccc(C(=O)O)cc1N | 215 to 217
CSc1ccc(CCOCCCCCC(C)NCC(O)c2ccc(O)c(NS(C)(=O)=O)c2)cc1 (stereo unspecified) | 133 to 138
CC[C@@H](c1ccccc1)N(Cc1ccc(S(C)(=O)=O)cc1)S(=O)(=O)c1ccc(Cl)cc1 | 61 to 63
Cc1nn(C)c(C(=O)N(C)C)c1Nc1ccccc1[N+](=O)[O-] | 144 to 146
COc1ccccc1NC(=O)Nc1nc(Nc2ccc(CC(=O)O)cc2)nc(Oc2ccc3ccccc3c2)n1 | 232 to 240
Cc1c(C#N)sc2nc(-c3ccc(Cl)cc3)nc(N3CCN(C)CC3)c12 | 209 to 210
Cc1csc(C)c1NCc1nnc(S)n1C | 184 to 187
NC(=O)c1cc(=O)c(-c2ccccc2)co1 | 245 to 248

Structure (SMILES) | melting point [°C]
CCSc1cn(C)cc(-c2cccc(C(F)(F)F)c2)c1=O | 84 to 85
COc1cc(C)nc(NC(=O)NS(=O)(=O)c2ccccc2CCSC#N)n1 | 161 to 165
CC(C)Oc1ccc(-c2nn(Cc3oc4cccc(F)c4c(=O)c3-c3cccc(F)c3)c3ncnc(N)c23)cc1F | 156 to 159
CCC(C(O)c1ccc(Cl)cc1)n1ncn(-c2ccc(N3CCN(C(=O)c4ccccn4)CC3)nc2)c1=O (stereo unspecified) | 210
CC=Cc1cnn(-c2c(Cl)cc(C(F)(F)F)cc2Cl)n1 | 35
O=C(C=Cc1cccc(Cl)c1)c1ccccc1O | 108
CC12CCC3C(CCC4CC=CCC43C)C1CC=C2Br (stereo unspecified) | 76 to 77
COc1cc(NC(=O)C2C(=O)N(C)C(=S)N(C)C2=O)ccc1Oc1ccc(C(F)(F)F)cc1Cl | 178 to 182
COc1ccc2nc3c(C)ccc([N+](=O)[O-])c3c(Cl)c2c1 | 227 to 228
Oc1ccc(Sc2cnnc3ccccc23)cc1 | 238
O=C(O)c1ccc(C(F)(F)F)cc1-c1ccc2c(c1)OC[C@H](Cc1ccccc1)[C@H]2O | 142
CCN1CCC(c2ccc(Br)cc2)CC1 | 33 to 34
O=C(O)CCc1cccc(Oc2ccccc2Cl)c1O | 90 to 92
CS(=O)(=O)Nc1cc(F)cc(F)c1 | 121
COc1c(Cl)cc(C(=O)O)c2cccc(S(=O)(=O)N(C)C)c12 | 127 to 137
CCCc1c(O)c(C(C)=O)cc2c(C)cc(C(=O)O)nc12 | 125 to 127
S=C1CNCCN1Cc1ccccc1 | 70 to 73
O=C(O)CCCCC(Cc1ccc(F)cc1)C(=O)O (stereo unspecified) | 80 to 81
C=CCSc1nnc(Cl)c2ccccc12 | 76 to 78
CC(CN1CC(=O)N(CN2CCN(c3ccccc3)CC2)C(=O)C1)N1CC(=O)N(CN2CCN(c3ccccc3)CC2)C(=O)C1 (stereo unspecified) | 94 to 101
COc1ccc(C=CC(=O)O)cc1-c1cc2c(cc1OCCCCCCO)C(C)(C)CCC2(C)C | 118 to 120
CCCC(=NOCC)C1=C(O)CC(c2c(C)c3c(c(C)c2Cl)CC(C)(C)C3)CC1=O (stereo unspecified) | 93 to 94
CCOc1cc(C(O)c2ccccn2)ccc1OCc1ccccc1 (stereo unspecified) | 109 to 110
